Results from US11408900B2, “Secreted P-glycoprotein is a non-invasive biomarker of chronic rhinosinusitis” (Massachusetts Eye and Ear Infirmary, priority 2016, dated 2022).

Key:
P-gp = P-gp (Homo sapiens, UniProt P08183); conditions: cited from earlier work
[1] = tested on: healthy patient derived epithelial cell cultures (HSNECCs); experiment: Quantitative fluorescent immunocytochemistry for membranous P-gp (CTCF) after recombinant P-gp exposure; format: cell-based, human; conditions: 24 hours
Method: (§1) HSNECCs from 7 control patients and 6 CRS patients were grown as previously described^8. Briefly, mucosal samples were washed and digested in Pronase for 90 minutes at 37° C. Cell suspensions were separated from particulate matter by centrifugation and resuspended in bronchial epithelial growth media (BEGM). Cells were plated for 2 hours on standard tissue culture plates to remove contaminating fibroblasts. Cells were then expanded for 3-5 days on human collagen type IV-coated (Collagen from human placenta, Bornstein and Traub Type IV, Sigma Aldrich, St. Louis, Mo.) 75 cm^2 dishes (Corning Life Sciences, Corning, N.Y.). […]
Fluorescent staining intensity was quantified according to previously described techniques^9. Briefly, 20× fields were chosen and images were analyzed in Image J v1.49t. The cells and 3 background areas were circled in Image J using the free hand sections tool and the integrated density, area of selected cell, and mean fluorescence of the backgrounds were measured using the region of interest (ROI) manager. The corrected total cell fluorescence (CTCF) was calculated as the integrated density−(area of selected cell×mean fluorescence of background readings). […]

[2] = tested on: healthy patient derived epithelial cell cultures (HSNECCs); experiment: Calcein AM P-glycoprotein activity assay after recombinant P-gp exposure; format: cell-based, human; conditions: 24 hours, n=7
Method: as §1
A calcein AM assay was performed to determine whether the interpolated P-gp was functional following 24 hours of recombinant P-gp exposure as described above. […] After 15 minutes, each well was washed 3 times with cold phosphate buffered saline and the calcein fluorescence within each well was quantified using a spectrophotometer (Molecular Devices SpectraMax M5, Sunnyvale, Calif.) at an excitation and emission wavelength of 494 nm and 517 nm, respectively. A decrease in fluorescence was considered an indication of increased P-gp function as previously described^4.

HSNECCs = experiment: Epithelial cytokine secretion (IL-6, IL-8, TSLP) by ELISA after exosome exposure with or without Zosuquidar; format: cell-based, human; conditions: 0.625 μM Zosuquidar, CRSwNP relative to control
Method: Control wells were those exposed to vehicle control alone. Following exposure, the media was collected from each well. Cytokine concentrations for TSLP (Thymic Stromal Derived Lymphopoietin), Interleukin (IL)-6, and IL-8 were determined by ELISA according to the manufactures guidelines (eBioscience, San Diego, Calif.). All secreted cytokine concentrations were normalized to total protein concentrations using the Micro BCA Protein Assay Kit (Pierce, Rockford, Ill.).

Chain of P-gp (P08183 whole entry): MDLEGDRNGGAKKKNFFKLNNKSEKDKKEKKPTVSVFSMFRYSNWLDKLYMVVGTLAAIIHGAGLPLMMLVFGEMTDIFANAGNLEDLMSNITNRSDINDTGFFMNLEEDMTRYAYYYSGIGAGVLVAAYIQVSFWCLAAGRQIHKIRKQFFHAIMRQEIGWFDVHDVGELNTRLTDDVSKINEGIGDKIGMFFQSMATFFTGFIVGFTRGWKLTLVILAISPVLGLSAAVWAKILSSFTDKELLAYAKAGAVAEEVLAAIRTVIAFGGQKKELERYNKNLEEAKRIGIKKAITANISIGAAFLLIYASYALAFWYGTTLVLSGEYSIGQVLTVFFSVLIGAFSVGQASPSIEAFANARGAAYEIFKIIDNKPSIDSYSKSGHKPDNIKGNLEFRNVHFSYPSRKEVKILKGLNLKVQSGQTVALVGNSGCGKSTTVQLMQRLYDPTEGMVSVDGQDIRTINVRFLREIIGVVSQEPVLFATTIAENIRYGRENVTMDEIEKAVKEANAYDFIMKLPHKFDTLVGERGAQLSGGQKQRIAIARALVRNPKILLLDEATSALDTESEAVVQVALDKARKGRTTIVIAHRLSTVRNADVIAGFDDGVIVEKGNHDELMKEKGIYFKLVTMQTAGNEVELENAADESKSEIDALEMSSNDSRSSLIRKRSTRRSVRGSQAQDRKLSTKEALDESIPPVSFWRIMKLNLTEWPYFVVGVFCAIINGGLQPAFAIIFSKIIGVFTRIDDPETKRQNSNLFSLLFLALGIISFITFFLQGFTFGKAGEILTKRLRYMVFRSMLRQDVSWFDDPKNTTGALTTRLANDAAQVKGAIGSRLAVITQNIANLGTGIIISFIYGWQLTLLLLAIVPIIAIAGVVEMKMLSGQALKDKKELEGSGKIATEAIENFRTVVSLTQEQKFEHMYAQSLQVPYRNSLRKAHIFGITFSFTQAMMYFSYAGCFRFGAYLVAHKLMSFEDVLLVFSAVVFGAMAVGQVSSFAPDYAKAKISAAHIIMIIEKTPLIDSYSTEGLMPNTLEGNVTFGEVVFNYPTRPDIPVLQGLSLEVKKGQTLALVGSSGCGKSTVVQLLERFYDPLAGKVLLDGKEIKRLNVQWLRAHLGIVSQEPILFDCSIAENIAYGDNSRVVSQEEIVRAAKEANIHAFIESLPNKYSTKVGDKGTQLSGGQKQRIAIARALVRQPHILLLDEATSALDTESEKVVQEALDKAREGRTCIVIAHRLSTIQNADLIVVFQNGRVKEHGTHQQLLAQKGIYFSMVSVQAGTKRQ

CCOC/C=C/c1ccc(-c2nc(-c3ccc(NC(C)C)cc3)c(-c3ccc(NC(C)C)cc3)[nH]2)cc1 [OC144093, 4-[2-[4-[(E)-3-ethoxyprop-1-enyl]phenyl]-4-[4-(propan-2-ylamino)phenyl]-1H-imidazol-5-yl]-N-propan-2-ylaniline]
potency relative to the first and second-generation inhibitors (P-gp): about 10 fold

COc1cc2c(cc1OC)CN(CCc1ccc(NC(=O)c3cc(OC)c(OC)cc3NC(=O)c3cnc4ccccc4c3)cc1)CC2 [XR9576, N-[2-[[4-[2-(6,7-Dimethoxy-3,4-dihydro-1H-isoquinolin-2-yl)ethyl]phenyl]carbamoyl]-4,5-dimethoxyphenyl]quinoline-3-carboxamide]
potency relative to the first and second-generation inhibitors (P-gp): about 10 fold

recombinant human P-gp: recombinant human P-glycoprotein (USCN Life Sciences Inc.)
CTCF (corrected total cell fluorescence) of P-gp staining ([1]; 2000 ng/mL recombinant human P-gp, n=7): 1.34+/−1.85
change in CTCF of P-gp staining ([1]; 100-2000 ng/mL exogenous recombinant human P-gp): dose dependent increase
mean calcein fluorescence ([2]; 100 ng/mL dose): 123.11+/−42.16
mean calcein fluorescence ([2]; 2000 ng/mL dose): 82.03+/−43.69

Cl.Cl.Cl.O[C@@H](COc1cccc2ncccc12)CN1CCN([C@@H]2c3ccccc3[C@@H]3[C@H](c4ccccc42)C3(F)F)CC1 [Zosuquidar, (2R)-1-{4-[(1aR,6r,10bS)-1,1-Difluoro-1,1a,6,10b-tetrahydrodibenzo[a,e]cyclopropa[c]cyclohepten-6-yl]piperazin-1-yl}-3-(quinolin-5-yloxy)propan-2-ol,trihydrochloride]
effect on exosome induced increase in IL-6 secretion (HSNECCs): abrogated
effect on exosome induced increase in IL-8 secretion (HSNECCs): abrogated
